Test results as given in PMC7704979, “Effect of the versatile bifunctional chelator AAZTA^5 on the radiometal labelling properties and the in vitro performance of a gastrin releasing peptide receptor antagonist” (EJNMMI Radiopharmacy and Chemistry, 2020).

Key:
[1] = system: PC3 cells; test: Internalization studies in PC3 cells; format: cell-based, human; details: 37 °C; for specifically internalized activity / total cell associated uptake: 6 h; for total cell associated uptake: % of applied radioactivity
Protocol: For internalization experiments, PC3 cells were seeded into 6-well plates and treated as described above. […] To determine nonspecific membrane binding and internalization, excess of Tyr^4-Bombesin (final concentration 1 μΜ) was added to selected wells. At each time point, the internalization was stopped by removing the medium and washing the cells twice with ice-cold PBS. To remove the receptor-bound radioligand, an acid wash was carried out twice with a 0.1 M glycine buffer pH 2.8 for 5 min on ice. Finally, cells were solubilized with 1 N NaOH. The radioactivity of the culture medium, the receptor-bound, and the internalized fractions were measured in a γ-counter.

[2] = biological target: T1, GRPr (Homo sapiens, UniProt P30550); test: Saturation binding studies on intact PC3 cells; details: for Bmax (concentration of the radiotracer required to saturate the receptors): intact PC3 cells, 4 °C, 120 min, normalized for 1 × 10^6 cells per well
T1 construct: For receptor saturation analysis, PC3 cells were seeded at a density of 0.8–1 million cells per well; endogenous in cells; host or cells: PC3 (human prostate adenocarcinoma cell line), intact cells
Protocol: For receptor saturation analysis, PC3 cells were seeded at a density of 0.8–1 million cells per well in 6-well plates and incubated overnight with medium (DMEM: F12 (1:1) containing 1% FBS, 100 U/mL penicillin and 100 μg/mL streptomycin). The next day, the medium was removed, the cells washed and incubated for 1 h at 37 °C with fresh medium. […] After the addition of the radioligands, the cells were incubated for 120 min at 4 °C. Non-specific binding was determined in the presence of Tyr^4-Bombesin at a final concentration of 1 μM. Then the cells were washed twice with ice-cold PBS, followed by solubilization with 1 N NaOH and the cell-associated radioactivity was measured using a gamma-counter. Specific binding was plotted against the total molar concentration of the added radiotracer. The Kd values and the concentration of the radiotracer required to saturate the receptors (Bmax) were determined by nonlinear regression using GraphPad (Prism 8 Graph Pad Software, San Diego, CA). For all the cell studies the values are normalized for 1 × 10^6 cells per well and all data are from two independent experiments with triplicates in each experiment.

[3] = system: PC3 cells; test: In vitro therapy study, trypan blue exclusion viability of PC3 cells; format: cell-based, human; details: monotherapy (rapamycin 10 nM or ^177Lu-labelled LF1 1.85 MBq), 72 h
Protocol: For the in vitro therapy studies, PC3 cells were seeded at a density of 50,000–100,000 cells (depending on the investigating time point: 100000, 75,000 and 50,000 cells for 24, 48, 72 h respectively) in 12-well plates and incubated overnight with cultivation medium at 37 °C and 5% CO2. The next day, the medium was removed, the cells washed, and culture medium containing either rapamycin (10 nM, dissolved in dimethyl sulfoxide (DMSO)) or DMSO (control, the final concentration of DMSO in the culture medium was 0.5%) was added. The plates were incubated at 37 °C and 5% CO2 for a period of 6 h. Afterwards, the medium containing rapamycin or DMSO was removed and fresh medium was added in each well. […] The viability of the cells was accessed by the trypan blue exclusion assay after incubation at 37 °C and 5% CO2 for 24, 48 and 72 h. The experiment was performed twice in triplicate.

T1 sequence (P30550 whole entry): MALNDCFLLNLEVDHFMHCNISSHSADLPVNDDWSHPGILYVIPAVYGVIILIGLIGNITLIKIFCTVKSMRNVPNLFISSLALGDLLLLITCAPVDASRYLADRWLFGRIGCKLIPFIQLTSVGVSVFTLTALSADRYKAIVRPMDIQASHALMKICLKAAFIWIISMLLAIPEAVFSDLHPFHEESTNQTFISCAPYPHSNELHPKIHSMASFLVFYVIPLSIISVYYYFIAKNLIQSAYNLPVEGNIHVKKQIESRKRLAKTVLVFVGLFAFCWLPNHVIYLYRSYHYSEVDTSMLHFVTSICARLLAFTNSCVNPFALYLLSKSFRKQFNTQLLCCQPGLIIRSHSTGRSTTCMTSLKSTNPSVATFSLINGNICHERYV

CC(C)C[C@H](NC(=O)CC(O)[C@H](CC(C)C)NC(=O)[C@H](Cc1c[nH]cn1)NC(=O)CNC(=O)[C@@H](NC(=O)[C@H](C)NC(=O)[C@H](Cc1c[nH]c2ccccc12)NC(=O)[C@H](CCC(N)=O)NC(=O)[C@@H](Cc1ccccc1)NC(=O)CN1CCC(NC(=O)CCCCC2(N(CC(=O)O)CC(=O)O)CN(CC(=O)O)CCN(CC(=O)O)C2)CC1)C(C)C)C(N)=O (some centres unmarked) [^68Ga-labelled LF1, metal not drawn]
internalized activity ([1]; 4 h): 2.8 ± 0.5% | Bmax (concentration of the radiotracer required to saturate the receptors) ([2]; listed as 68/natGa-LF1): 0.4 ± 0.02 nM | factor of lower affinity compared to ^111/natIn-LF1 ([2]; ratio of Kd values, PC3 cells): ~3

CO[C@H]1C[C@@H]2CC[C@@H](C)[C@@](O)(O2)C(=O)C(=O)N2CCCC[C@H]2C(=O)O[C@H]([C@H](C)C[C@@H]2CC[C@@H](O)[C@H](OC)C2)CC(=O)[C@H](C)/C=C(\C)[C@@H](O)[C@@H](OC)C(=O)[C@H](C)C[C@H](C)/C=C/C=C/C=C/1C [rapamycin]
cell viability [3]: approx. 50%

CC(C)C[C@H](NC(=O)CC(O)[C@H](CC(C)C)NC(=O)[C@H](Cc1c[nH]cn1)NC(=O)CNC(=O)[C@@H](NC(=O)[C@H](C)NC(=O)[C@H](Cc1c[nH]c2ccccc12)NC(=O)[C@H](CCC(N)=O)NC(=O)[C@@H](Cc1ccccc1)NC(=O)CN1CCC(NC(=O)CCCCC2(N(CC(=O)O)CC(=O)O)CN(CC(=O)O)CCN(CC(=O)O)C2)CC1)C(C)C)C(N)=O (some centres unmarked) [^111In-labelled LF1, metal not drawn]
specifically internalized activity [1]: 9.2 ± 0.5% | total cell associated uptake [1]: 38.3 ± 2.5% | Bmax (concentration of the radiotracer required to saturate the receptors) ([2]; listed as 111/natIn-LF1): 0.6 ± 0.06 nM

CC(C)C[C@H](NC(=O)CC(O)[C@H](CC(C)C)NC(=O)[C@H](Cc1c[nH]cn1)NC(=O)CNC(=O)[C@@H](NC(=O)[C@H](C)NC(=O)[C@H](Cc1c[nH]c2ccccc12)NC(=O)[C@H](CCC(N)=O)NC(=O)[C@@H](Cc1ccccc1)NC(=O)CN1CCC(NC(=O)CN2CCN(CC(=O)O)CCN(CC(=O)O)CCN(CC(=O)O)CC2)CC1)C(C)C)C(N)=O (some centres unmarked) [^177/natLu-RM2, metal not drawn, reference compound]
Bmax (concentration of the radiotracer required to saturate the receptors) [2]: 0.8 ± 0.03 nM

CC(C)C[C@H](NC(=O)CC(O)[C@H](CC(C)C)NC(=O)[C@H](Cc1c[nH]cn1)NC(=O)CNC(=O)[C@@H](NC(=O)[C@H](C)NC(=O)[C@H](Cc1c[nH]c2ccccc12)NC(=O)[C@H](CCC(N)=O)NC(=O)[C@@H](Cc1ccccc1)NC(=O)CN1CCC(NC(=O)CCCCC2(N(CC(=O)O)CC(=O)O)CN(CC(=O)O)CCN(CC(=O)O)C2)CC1)C(C)C)C(N)=O (some centres unmarked) [^177Lu-labelled LF1, metal not drawn]
specifically internalized activity [1]: 8.9 ± 0.8% | total cell associated uptake [1]: 34.5 ± 2.3% | Bmax (concentration of the radiotracer required to saturate the receptors) ([2]; listed as 177/natLu-LF1): 0.8 ± 0.05 nM
